Reference: PMC6692352, “DF2726A, a new IL-8 signalling inhibitor, is able to counteract chemotherapy-induced neuropathic pain” (Scientific Reports, 2019)
“Also recorded” adds a separate entry of the source.

Legend:
F11 cells = test: Cell viability assay in F11 neuronal cells; settings: 24 h, 5–20 µM
Procedure: For the subsequent experiments, DF2726A was used at a final concentration of 1 µM, and oxaliplatin at a final concentration of 20 µM. For comparison, paclitaxel alone or in combination with DF2726A was also used.
F11 hybridoma cells (ECACC 08062601), chosen as a model of DRG neurons[22],[32],[33] were cultivated in DMEM (Euroclone, Milan, Italy) supplemented with 10% FBS (Sigma-Aldrich, St. Louis, MO, USA), 1% penicillin/streptomycin (Euroclone, MI, Italy) and 1% glutamine (Euroclone) at 37 °C, in humidified 95% air with 5% CO2 atmosphere. For all the experiments, cells were used at 18th passage.
Supplementary Fig. 2: Effect of DF2726A, oxaliplatin and paclitaxel treatment on neuronal cell
viability. Cell viability assay of F11 cells after treatment at different concentrations of DF 2726A
(DF; 1-20 µM), oxaliplatin (OXA, 5-60 µM), paclitaxel (PAC, 5-20 nM) and the combination of 20
µM oxaliplatin+DF2726A (Oxa+DF) and paclitaxel+DF2726A (PAC+DF) at 24 h. Data are means

acetylated α-tubulin = test: Acetylated α-tubulin immunofluorescence of nerve fibres in paw sections of oxaliplatin rats; assay type: in vivo, male Wistar rats; settings: 30 mg/kg os, rat paw sections
Procedure: (§1) Animals were sacrificed and a biopsy (3 mm) was taken from pad of the right hind paw. Biopsies were immediately placed in Zamboni’s fixative, where they were left at 4 °C. Tissues were then transferred to 20% sucrose for at least 24 h and used for immunohistochemistry analysis. Specimens were frozen in Optimal Cutting Temperature compound (OCT, Sakura Finetek Inc, CA, USA) and sliced into 20 μm thick serial coronal sections by cryostat AMES LAB-TEK (Westmont, Illinois, USA).
In brief, sections were blocked with phosphate buffer saline (PBS) containing 10% (Bovine Serum Albumin) and 0.3% Tween-20, for 1 h at RT and incubated, overnight at 4 °C, with the primary antibodies: IL-8 (mouse, 1:25, R&D Systems Inc. Minneapolis, MN, USA), PGP9.5 (rabbit, 1:1000, AbD Serotec, NC, USA), acetylated alpha tubulin (mouse, 1:250, Abcam Cambridge, MA, USA) and collagen IV (goat, 1:25, Southern Biotech, Birmingham, AL, USA). Sections were then rinsed in PBS several times before incubation for 2 h at RT with secondary antibodies, donkey AlexaFluor 488 anti-rabbit or donkey AlexaFluor 633 (1:2000), goat anti-mouse conjugated with Alexafluor 488 (1:2000; Life Technologies, Camarillo, CA, USA). […]

IENFs (PGP9.5) = test: Oxaliplatin-induced loss of IENFs, PGP9.5 immunofluorescence of paw sections; assay type: in vivo, male Wistar rats; settings: 30 mg/kg os, rat paw sections
Procedure: as §1, with “USA). […]” for “USA).”
Five slices were examined for each animal. For each slide, 4 fields were counted. For quantitative evaluation of IL-8/CINC-1 (the homolog of IL-8 in rat) and […], photomicrographs for each condition were analysed by ImageJ software (National Institutes of Health, Bethesda, MD, USA) as previously described. […] The signal was first measured on the tissue in an area devoid of signal at visual inspection and assumed as background; the threshold was then set at 1.5 times the background and the surface area and mean grey intensity were measured for all areas above the threshold. […]

Iba-1 = test: Western blot of DRG of oxaliplatin rats, microglia marker Iba-1; assay type: in vivo, male Wistar rats; settings: 30 mg/kg os; p < 0.01 vs OXA rats
Procedure: Animals were sacrificed and dorsal root ganglia (DRG) (L4-L6) were removed and stored at […]. They were homogenized on ice-cold lysis buffer [20 mM Tris–HCl (pH 7.5), 10 mM NaF, 150 mM NaCl, 1% Nonidet P-40, 1 mM phenylmethylsulfonyl fluoride, 1 mM Na3VO4, leupeptin and trypsin inhibitor 10 μg/mL; 20 µl/sample, as previously described.
After 1 h, tissue lysates were obtained by centrifugation at 20,000 g for 15 min at 4 °C. Protein concentrations were estimated by the Bio-Rad protein assay using bovine serum albumin as standard.
DRG lysate proteins (30 μg) were dissolved in Laemmli sample buffer, boiled for 5 min, and separated on SDS-polyacrylamide gel elctrophoresis and transferred onto nitrocellulose membrane (240 mA for 40 min at room temperature). […] The protein bands were scanned and densitometrically analyzed with a model GS-700 imaging densitometer (Bio-Rad Laboratories, Milan, Italy). […]

PI3K/p-cortactin = PI3K/p-cortactin western blotting in F11-derived neurons; assay type: cell-based; settings: 24 h
human COX1 = target: T1, human COX1 (Homo sapiens, UniProt P23219); test: COX1 assay, PGE2 formation from arachidonic acid, recombinant enzyme; assay type: biochemical
T1 construct: host or cells: Sf-9
Procedure: Protein binding in human, dog and rat plasma […]
in DMSO at a final concentration of 2 mM. […]
plasma to obtain a final concentration of 10 µM. Human, dog and rat plasma (200 µL) in triplicate […]
vials for LC-MS/MS analysis. […]
mM Tris-HCl (pH 8.0), 1.98 mM phenol and 1.02 µM hematine. Thereafter, the reaction was initiated by adding 4 µM (COX1) or 2 µM (COX2) of arachidonic acid and the mixture was incubated for 5 min at RT. For basal control measurements, arachidonic acid was omitted from the reaction mixture. Following incubation, t he reaction was stopped by the addition of 1 M HCl then 1 M Tris/HCl (pH 8.0) followed by cooling to 4°C.
The fluorescence acceptor (d2 labeled PGE2) and the fluorescence donor (anti -PGE2 antibody labeled with europium Cryptate) were then added. After 120 min, the fluorescence transfer corresponding to the amount of residual PGE2 was measured at λex=337 nm, λem=620 nm and λem=665 nm using a microplate reader (Envision, Perkin Elmer). The enzyme activity was determined by dividing the signal measured at 665 nm by that measured at 620 nm (ratio). The results were expressed as a percent age inhibition of the control enzyme activity. The standard inhibitory reference compound was Diclofenac, which was tested in each experiment at several concentrations to obtain an inhibition curve from which its IC50 value was calculated. […]

T1 sequence (P23219 24-599): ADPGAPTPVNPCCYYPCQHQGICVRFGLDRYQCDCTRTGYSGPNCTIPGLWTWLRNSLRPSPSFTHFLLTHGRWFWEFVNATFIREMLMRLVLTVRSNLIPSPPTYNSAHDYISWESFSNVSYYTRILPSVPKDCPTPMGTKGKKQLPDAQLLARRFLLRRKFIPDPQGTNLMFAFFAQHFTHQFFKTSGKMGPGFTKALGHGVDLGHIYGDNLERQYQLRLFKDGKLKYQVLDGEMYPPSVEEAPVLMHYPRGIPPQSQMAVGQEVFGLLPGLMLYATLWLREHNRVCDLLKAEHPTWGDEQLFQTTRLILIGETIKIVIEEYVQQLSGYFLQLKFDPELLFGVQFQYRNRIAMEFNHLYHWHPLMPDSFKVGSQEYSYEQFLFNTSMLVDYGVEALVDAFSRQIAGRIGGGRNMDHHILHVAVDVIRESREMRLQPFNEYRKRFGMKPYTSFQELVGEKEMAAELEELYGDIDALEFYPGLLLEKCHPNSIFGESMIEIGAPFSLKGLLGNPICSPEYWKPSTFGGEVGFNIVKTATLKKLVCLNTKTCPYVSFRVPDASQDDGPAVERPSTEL

CC(C)(C(=O)O)c1ccc(Nc2nc(C(F)(F)F)cs2)cc1 [DF2726A]
Neuronal cell viability (F11 cells): ineffective in modulating neuronal cell viability | Acetylated α-tubulin levels in nerve fibres of oxaliplatin rats (acetylated α-tubulin): completely restored control conditions | Effect on oxaliplatin-induced loss of IENFs (PGP9.5) (IENFs (PGP9.5)): preventing the loss of epidermal innervation | Iba-1 expression in DRG of oxaliplatin rats (Iba-1): significantly reduced the expression | PI3K/p-cortactin expression, oxaliplatin-treated neurons (PI3K/p-cortactin; DF2726A 1 µM + oxaliplatin 20 µM): attenuated this effect | PI3K/p-cortactin expression, paclitaxel-treated neurons (PI3K/p-cortactin; DF2726A + paclitaxel 10 nM): attenuated this effect | COX 1 Inhibition (50 µM) (human COX1): did not inhibit; also recorded: No Inhibition observed
